For 21 compounds, IC50 and inhibition results are on record in patent US10865208B2, “ATG7 inhibitors and the uses thereof” (Millennium Pharmaceuticals, Inc., priority 2016, dated 2020).

The assay concerns the target recombinant human His-ATG7 enzyme (Homo sapiens (Human), UniProt O95352). The experiment in a line: ATG7 Enzyme Assay (HTRF/FRET, ATG3-GST and Flag-Gabarap). The conditions noted are these: for inhibition at 0.111 µM: Concentration 0.111 μM; for inhibition at 0.123 µM: Concentration 0.123 μM. It counts as biochemical. The protocol:
Example 97: ATG7 Enzyme Assay
The total volume of the ATG7 enzymatic assay is 50 μL and contains 50 mM HEPES Hemisodium (pH 7.5), 0.05% BSA, 0.01% Tween-20, 25 mM NaCl, 5 mM MgCl2, 10 μM ATP, 250 μM GSH, 5 nM ATG3-GST, 5 nM Flag-Gabarap, 100 μM TCEP and 0.15 nM recombinant human His-ATG7 enzyme. The enzymatic reaction mixture, with and without inhibitor, was incubated at 24° C. for 105 min in a 384-well plate before termination with […] of Stop/Detection buffer (0.1M HEPES Hemisodium pH 7.5, 0.05% Tween20, 20 mM EDTA, 410 mM KF, 0.53 nM Europium-Cryptate labeled monoclonal anti-Flag M2 Antibody (CisBio International) and 8.125 μg/ml PHYCOLINK goat anti-GST allophycocyanin (XL-APC) antibody (Prozyme)). After incubation for 2 hours at 24° C., quantification of FRET is performed on the Pherostar™ (BMG Labtech). Percentage inhibition values at a single concentration or enzyme inhibition (IC50) values are determined from those curves. One skilled in the art will appreciate that the values generated either as percentage inhibition at a single concentration or IC50 values are subject to experimental variation.
Background: Time-resolved FRET reads energy transfer from a long-lived donor to a nearby acceptor.

A value given as a limit tells only on which side of the number the result lay.

Chain of recombinant human His-ATG7 enzyme (O95352 whole entry): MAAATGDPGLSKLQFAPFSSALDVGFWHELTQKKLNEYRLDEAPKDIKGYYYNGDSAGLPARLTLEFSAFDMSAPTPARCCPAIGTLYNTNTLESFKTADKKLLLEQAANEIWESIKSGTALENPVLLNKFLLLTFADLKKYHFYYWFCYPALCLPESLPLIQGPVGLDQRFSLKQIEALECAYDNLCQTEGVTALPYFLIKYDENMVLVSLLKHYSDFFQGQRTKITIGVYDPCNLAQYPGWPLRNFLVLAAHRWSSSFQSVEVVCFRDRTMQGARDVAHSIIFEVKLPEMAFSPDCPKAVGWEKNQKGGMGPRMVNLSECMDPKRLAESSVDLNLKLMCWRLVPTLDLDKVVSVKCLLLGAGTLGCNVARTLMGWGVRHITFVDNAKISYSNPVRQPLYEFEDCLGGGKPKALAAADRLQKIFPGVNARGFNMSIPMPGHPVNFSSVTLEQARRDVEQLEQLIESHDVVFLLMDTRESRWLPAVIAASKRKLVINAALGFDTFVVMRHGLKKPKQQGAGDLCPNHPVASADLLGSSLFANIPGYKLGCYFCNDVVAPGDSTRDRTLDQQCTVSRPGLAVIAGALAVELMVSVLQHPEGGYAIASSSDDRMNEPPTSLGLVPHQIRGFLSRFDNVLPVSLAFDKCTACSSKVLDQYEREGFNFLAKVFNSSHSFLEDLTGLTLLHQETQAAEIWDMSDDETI

The IC50 is the concentration at which inhibition is half-maximal. Usually inhibition stands for the percentage by which the read-out fell short of the control. For `Nc1ncnc2c1c(SC1CCCCC1)nn2[C@@H]1O[C@H](COS(N)(=O)=O)[C@@H](O)[C@@H]1F` [Compound I-122, {(2R,3R,4S,5R)-5-[4-amino-3-(cyclohexylsulfanyl)-1H-pyrazolo[3,4-d]pyrimidin-1-yl]-4-fluoro-3-hydroxytetrahydrofuran-2-yl}methyl sulfamate], the IC50 was in the range of 20 to 50 nM. Moreover, the inhibition at 0.111 µM (read-out: Percent Inhibition) stood at 80%.

Consider `CC(O)c1nn([C@@H]2O[C@H](COS(N)(=O)=O)[C@@H](O)[C@H]2O)c2ncnc(N)c12` (single isomer, unassigned) [Compound I-23b, [(2R,3S,4R,5R)-5-{4-amino-3-[(1R)-1-hydroxyethyl]-1H-pyrazolo[3,4-d]pyrimidin-1-yl}-3,4-dihydroxytetrahydrofuran-2-yl]methyl Sulfamate or [(2R,3S,4R,5R)-5-{4-amino-3-[(1S)-1-hydroxyethyl]-1H-pyrazolo[3,4-d]pyrimidin-1-yl}-3,4-dihydroxytetrahydrofuran-2-yl]methyl Sulfamate], for which the IC50 lay in the range of 100 to 500 nM. Moreover, the inhibition at 0.123 µM (read-out: Percent Inhibition) came out at 22%.

As for `Cc1ccc(Sc2nn([C@@H]3O[C@H](COS(N)(=O)=O)[C@@H](O)[C@@H]3F)c3ncnc(N)c23)nc1` [Compound I-152, [(2R,3R,4S,5R)-5-{4-amino-3-[(5-methylpyridin-2-yl)sulfanyl]-1H-pyrazolo[3,4-d]pyrimidin-1-yl}-4-fluoro-3-hydroxytetrahydrofuran-2-yl]methyl sulfamate], the IC50 is less than 20 nM. Moreover, the inhibition at 0.111 µM (read-out: Percent Inhibition) is 88%.

As for `Nc1ncnc2c1c(SC1CCC1)nn2[C@H]1C[C@H](O)[C@@H](COS(N)(=O)=O)O1` [Compound I-164, {(2R,3S,5R)-5-[4-amino-3-(cyclobutylsulfanyl)-1H-pyrazolo[3,4-d]pyrimidin-1-yl]-3-hydroxytetrahydrofuran-2-yl}methyl sulfamate], the IC50 is 50 to 100 nM. Besides, where the note is “read-out: Percent Inhibition”, the inhibition at 0.111 µM is 70%.

As to `CSc1nn([C@@H]2O[C@@H](COS(N)(=O)=O)[C@@H](O)[C@@H]2F)c2ncnc(N)c12` [Compound I-96, {(2S,3R,4S,5R)-5-[4-amino-3-(methylsulfanyl)-1H-pyrazolo[3,4-d]pyrimidin-1-yl]-4-fluoro-3-hydroxytetrahydrofuran-2-yl}methyl Sulfamate], the IC50 lay in the range of 100 to 500 nM. Further, under “read-out: Percent Inhibition”, the inhibition at 0.111 µM was determined as 44%.

For the compound `Nc1ncnc2c1c(C(F)F)nn2[C@H]1C[C@H](O)[C@H](COS(N)(=O)=O)O1` [Compound I-217, {(2S,3S,5R)-5-[4-amino-3-(difluoromethyl)-1H-pyrazolo[3,4-d]pyrimidin-1-yl]-3-hydroxytetrahydrofuran-2-yl}methyl Sulfamate], the IC50 fell in the range of 100 to 500 nM. Moreover, the inhibition at 0.111 µM (read-out: Percent Inhibition) was determined as 34%.

Take `NC(=O)c1nn([C@@H]2O[C@H](COS(N)(=O)=O)[C@@H](O)[C@H]2O)c2ncnc(N)c12` [Compound I-16, [(2R,3S,4R,5R)-5-(4-amino-3-carbamoyl-1H-pyrazolo[3,4-d]pyrimidin-1-yl)-3,4-dihydroxytetrahydrofuran-2-yl]methyl Sulfamate]: the IC50 was in the range of 100 to 500 nM. Also, the inhibition at 0.069 µM (Concentration 0.069 μM, read-out: Percent Inhibition) came to 22%.

In the case of `N#Cc1cccc(Sc2nn([C@@H]3O[C@H](COS(N)(=O)=O)[C@@H](O)[C@@H]3F)c3ncnc(N)c23)c1` [Compound I-153, [(2R,3R,4S,5R)-5-{4-amino-3-[(3-cyanophenyl)sulfanyl]-1H-pyrazolo[3,4-d]pyrimidin-1-yl}-4-fluoro-3-hydroxytetrahydrofuran-2-yl]methyl sulfamate], the IC50 fell in the range of 50 to 100 nM. Also, where the note is “read-out: Percent Inhibition”, the inhibition at 0.111 µM stood at 58%.

As to `Nc1ncnc2c1c(SCc1ccc(OC(F)(F)F)cc1)nn2[C@@H]1O[C@H](COS(N)(=O)=O)[C@@H](O)[C@H]1O` [Compound I-32, [(2R,3S,4R,5R)-5-(4-amino-3-{[4-(trifluoromethoxy)benzyl]sulfanyl}-1H-pyrazolo[3,4-d]pyrimidin-1-yl)-3,4-dihydroxytetrahydrofuran-2-yl]methyl sulfamate], the IC50 was 20 to 50 nM. Further, for the setting “read-out: Percent Inhibition”, the inhibition at 0.123 µM was 73%.

Regarding `Cn1ccnc1CSc1nn([C@@H]2O[C@H](COS(N)(=O)=O)[C@@H](O)[C@@H]2F)c2ncnc(N)c12` [Compound I-112, [(2R,3R,4S,5R)-5-(4-amino-3-{[(1-methyl-1H-imidazol-2-yl)methyl]sulfanyl}-1H-pyrazolo[3,4-d]pyrimidin-1-yl)-4-fluoro-3-hydroxytetrahydrofuran-2-yl]methyl sulfamate], the IC50 lay within 100 to 500 nM. Besides, the inhibition at 0.111 µM (read-out: Percent Inhibition) worked out at 44%.

As to `Cc1csc(Sc2nn([C@H]3C[C@H](O)[C@@H](COS(N)(=O)=O)O3)c3ncnc(N)c23)n1` [Compound I-208, [(2R,3S,5R)-5-{4-amino-3-[(4-methyl-1,3-thiazol-2-yl)sulfanyl]-1H-pyrazolo[3,4-d]pyrimidin-1-yl}-3-hydroxytetrahydrofuran-2-yl]methyl sulfamate], the IC50 is 100 to 500 nM. For the same compound, the inhibition at 0.111 µM (read-out: Percent Inhibition) came to 44%.

Consider `CC(C)(C)Sc1nn([C@@H]2O[C@H](COS(N)(=O)=O)[C@@H](O)[C@H]2O)c2ncnc(N)c12` [Compound I-53, {(2R,3S,4R,5R)-5-[4-amino-3-(tert-butylsulfanyl)-1H-pyrazolo[3,4-d]pyrimidin-1-yl]-3,4-dihydroxytetrahydrofuran-2-yl}methyl sulfamate], for which the IC50 lay in the range of 20 to 50 nM. Besides, the inhibition at 0.123 µM (read-out: Percent Inhibition) amounted to 82%.

On to `Nc1ncnc2c1c(SCc1ccc(C(F)(F)F)cc1)nn2[C@@H]1O[C@H](COS(N)(=O)=O)[C@@H](O)[C@H]1O` [Compound I-33, [(2R,3S,4R,5R)-5-(4-amino-3-{[4-(trifluoromethyl)benzyl]sulfanyl}-1H-pyrazolo[3,4-d]pyrimidin-1-yl)-3,4-dihydroxytetrahydrofuran-2-yl]methyl sulfamate], for which the IC50 is 20 to 50 nM. In addition, under “read-out: Percent Inhibition”, the inhibition at 0.123 µM is 82%.

As to `Nc1ncnc2c1c(Sc1ccc(Cl)cc1)nn2[C@@H]1O[C@H](COS(N)(=O)=O)[C@@H](O)[C@H]1O` [Compound I-64, [(2R,3S,4R,5R)-5-{4-amino-3-[(4-chlorophenyl)sulfanyl]-1H-pyrazolo[3,4-d]pyrimidin-1-yl}-3,4-dihydroxytetrahydrofuran-2-yl]methyl sulfamate], the IC50 fell in the range of 20 to 50 nM. Moreover, for the setting “read-out: Percent Inhibition”, the inhibition at 0.123 µM was found to be 84%.

With `Nc1ncnc2c1c(Sc1ccc3ccccc3c1)nn2[C@H]1C[C@H](O)[C@H](COS(N)(=O)=O)O1` [Compound I-210, {(2S,3S,5R)-5-[4-amino-3-(2-naphthylsulfanyl)-1H-pyrazolo[3,4-d]pyrimidin-1-yl]-3-hydroxytetrahydrofuran-2-yl}methyl Sulfamate], the IC50 was 100 to 500 nM. Where the note is “read-out: Percent Inhibition”, the inhibition at 0.111 µM turned out to be 35%.

On to `Cc1ccccc1Sc1nn([C@H]2C[C@H](O)[C@@H](COS(N)(=O)=O)O2)c2ncnc(N)c12` [Compound I-176, [(2R,3S,5R)-5-{4-amino-3-[(2-methylphenyl)sulfanyl]-1H-pyrazolo[3,4-d]pyrimidin-1-yl}-3-hydroxytetrahydrofuran-2-yl]methyl sulfamate], for which the IC50 lay within 100 to 500 nM. In addition, the inhibition at 0.111 µM (read-out: Percent Inhibition) turned out to be 26%.

With `COc1nn([C@@H]2O[C@H](COS(N)(=O)=O)[C@@H](O)[C@H]2O)c2ncnc(N)c12` [Compound I-1, [(2R,3S,4R,5R)-5-(4-amino-3-methoxy-1H-pyrazolo[3,4-d]pyrimidin-1-yl)-3,4-dihydroxytetrahydrofuran-2-yl]methyl sulfamate], the IC50 fell in the range of 50 to 100 nM. Moreover, the inhibition at 0.123 µM (read-out: Percent Inhibition) turned out to be 51%.

For the compound `Nc1ncnc2c1c(SCCO)nn2[C@@H]1O[C@H](COS(N)(=O)=O)[C@@H](O)[C@H]1O` [Compound I-46, [(2R,3S,4R,5R)-5-{4-amino-3-[(2-hydroxyethyl)sulfanyl]-1H-pyrazolo[3,4-d]pyrimidin-1-yl}-3,4-dihydroxytetrahydrofuran-2-yl]methyl sulfamate], the IC50 is less than 20 nM. For the same compound, the inhibition at 0.123 µM (read-out: Percent Inhibition) stood at 88%.

As to `CCSc1nn([C@H]2C[C@H](O)[C@H](COS(N)(=O)=O)O2)c2ncnc(N)c12` [Compound I-213, {(2S,3S,5R)-5-[4-amino-3-(ethylsulfanyl)-1H-pyrazolo[3,4-d]pyrimidin-1-yl]-3-hydroxytetrahydrofuran-2-yl}methyl sulfamate], the IC50 fell in the range of 100 to 500 nM. Besides, where the note is “read-out: Percent Inhibition”, the inhibition at 0.111 µM amounted to 46%.

Take `CC(C)Sc1nn([C@@H]2O[C@@H](COS(N)(=O)=O)[C@@H](O)[C@H]2O)c2ncnc(N)c12` [Compound I-95, {(2S,3S,4R,5R)-5-[4-amino-3-(isopropylsulfanyl)-1H-pyrazolo[3,4-d]pyrimidin-1-yl]-3,4-dihydroxytetrahydrofuran-2-yl}methyl Sulfamate]: the IC50 lay within 100 to 500 nM. Also, the inhibition at 0.123 µM (read-out: Percent Inhibition) worked out at 47%.

As to `Cc1ccc(F)c(Sc2nn([C@H]3C[C@H](O)[C@@H](COS(N)(=O)=O)O3)c3ncnc(N)c23)c1` [Compound I-191, [(2R,3S,5R)-5-{4-amino-3-[(2-fluoro-5-methylphenyl)sulfanyl]-1H-pyrazolo[3,4-d]pyrimidin-1-yl}-3-hydroxytetrahydrofuran-2-yl]methyl sulfamate], the IC50 is 50 to 100 nM. Moreover, where the note is “read-out: Percent Inhibition”, the inhibition at 0.111 µM was found to be 63%.
